Data on six compounds can be found in patent publication US4952580A, “Pesticidal polyhaloalkene derivatives” (priority 1988, dated 1990).

Like-named read-outs stand apart in the source and are kept apart here.

Assay [1] concerns root-knot nematode (Meloidogyne incognita). Description: Initial Root-Knot Nematicidal Activity. It counts as in vivo. As to conditions: 336 h, read-out: Percent Control; for pest or weed control at 0.313 ppm: Table 2, Application Rate 0.313 ppm; for pest or weed control at 1.25 ppm: Table 2, Application Rate 1.25 ppm; for pest or weed control at 0.078 ppm: Table 2, Application Rate 0.078 ppm; for pest or weed control at 0.156 ppm: Table 2, Application Rate 0.156 ppm. As to the method:
(§1) Compounds of this invention were tested as follows for nematicidal and anthelmintic activity as dust formulations (initial and residual activity) and as acetone/water formulations (systemic activity). The formulations are described above.
The activity against root-knot nematode (Meloidogyne incognita) was determined by incorporating the compound of the invention in nematode infested soil at rates in the range of 10 ppm to 0.078 ppm of compound. Several tomato or cucumber seedlings were planted in the nematode infested soil. Two weeks after planting the test pots were evaluated to ascertain the degree of galling (swelling) on the roots of the plants, indicating the control provided by the test chemical.
The results expressed as precent control (determined by knot index) are set forth as averages in Table 2 (appended). Knot index is a numerical designation assigned at evaluation, having the following meanings:
Percent control is related to knot index as follows:
When the Knot Index is between 0 and 1 it is further subdivided as follows to indicate how close the percent control is to 75% or 100%: […]

Assay [2] relates to root-knot nematode. The assay is described as follows: Systemic Activity (basipetal, foliar spray) against root-knot nematode. The class given is in vivo, Meloidogyne incognita. As to conditions: 336 h, Table 8, rate 2000 ppm, read-out: Percent Control. As to the method: as §1
Compounds of the invention were tested for basipetal systemic activity against the root-knot nematode. In this test, tomato plants are grown in 10.2 cm diameter fiber pots containing steam-pasteurized soil mix (50%, soil, 50% sand) until 4-6 true leaves appear. Three of the pots are then placed on a turntable in a spray hood and the plants sprayed with 50 ml of water/acetone solution containing the test compound. The soil surface is covered during the spraying to prevent spraying of the soil. After treatment, the potted plants are placed in a lighted drying chamber. The plants are then grown in a growth chamber at 25° C. for three days and inoculated with a standard nematode culture by incorporating the inoculum into the top cm of soil in the pots. The plants are returned to the growth chamber for about two weeks at which time the pots are allowed to dry until the plants begin to wilt. The roots are shaken free of soil and the degree of galling (swelling) noted as compared to galling of untreated control plants. The results are expressed as Knot Index and Percent Control as defined in the initial root-knot nematode activity tests reported above in Table 2.

Assay [3] concerns root-knot nematode. The assay is described as follows: Residual Root-Knot Nematicidal Activity. It counts as in vivo, Meloidogyne incognita. As to conditions: read-out: Percent Control. The procedure:
as §1
The ability of nematicidal compounds of the invention to control root-knot nematode infestations in soil over a period of time after treatment was evaluated. Dust formulations of test compound (5%) were incorporated into soil samples at test compound rates of 5 and 10 ppm. Subsequently, the treated soil samples were inoculated with nematode inoculum at weekly intervals, and Knot Index and Percent Control determined on seedlings planted in the soil samples. Specifically, soil treated with test compound was placed in 7.6 cm diameter fiber pots and stored in a greenhouse. At one, two and four weeks post-treatment, the appropriate number of pots was infested with root-knot nematode eggs and larvae. A cucumber or tomato seedling was planted in each pot and evaluated approximately two weeks after the soil infestation to obtain the test results reported in Tables 3 and 3a appended.

Another assay relates to Caenorhabditis elegans. Description: C. Elegans Nematode Screening Test and Evaluation (in-vitro). As to conditions: Caenorhabditis elegans. The procedure:
This in-vitro test using the free-living nematode Caenorhabditis elegans, is a modification of the assay developed by Simpkin and Coles, J. Chem. Tech. […] One milliliter of a test medium consisting of 5 mg ampicillin, 10,000 units of mycostatin and 10 ml of a dense suspension of Escherichia coli per 100 ml of a buffer solution, was pipetted into each well of a 24-well microtiter plate. The candidate nematicide, suspended at the appropriate concentration in dimethylsulfoxide, was added to the wells in […] volumes. Each rate of application was replicated two to three times. After thorough mixing of the contents of each well, 50 to 100 μl of a nematode suspension in a buffer was added so that each well received 10-15 nematodes. After the nematodes were added, the microtiter plates were incubated at 20° C. for 5-6 days.
The effect of the candidate nematicide on the survival and the reproduction of C. elegans was then evaluated by comparison of the level of population developed in the treated wells with that in untreated wells. Specific effects on population development, such as reduced egg hatch or molting disruption, were noted if they were evident.

The next assay has as its system lesion nematode. Description: Lesion Nematode Test. The class given is in vivo. As to conditions: Table 5; rate 2.5 ppm; read-out: Percent Control. The procedure: as §1
The procedure was substantially the same as in the stunt nematode test described above except that pea seedlings were used. The results (Table 5 appended) show good control with many of the compounds at the application rates tested as compared with untreated samples (no control). "Percent Control" is defined as follows: [formula]

Assay [4] relates to root-knot nematode. The assay is described as follows: Soil Mobility against root-knot nematode. The class given is in vivo, Meloidogyne incognita. The following applies: 336 h, Table 7a, 5% dust, 5 ppm, read-out: Percent Control. As to the method:
as §1
The ability of nematicidal compounds of the invention to move through nematode-infested soil […] infested soil, and subsequently eluting the soil with 15 cm of water (equivalent to 15 cm of rainfall) into a series of two or more pots of untreated, but nematode-infested, soil. Specifically, the pots were 8 cm diameter plastic pots containing a 10 cm^3 layer of sand over a coarse grade filter paper disc. Sufficient soil was placed over the sand to fill the pots, and a second filter paper disc was placed over the soil. Each test compound-treated pot was nested over a series of two or more pots containing untreated, but nematode-infested soil, also containing sand filter paper discs as described for the treated soil pots. Fifteen cm of water was slowly dripped into the top pots and the pots were allowed to drain for 16-18 hours to remove excess water. The top filter of each pot was then removed and the pots were planted with a cucumber or tomato seedling. […] "Knot Index" and "Percent Control" are as defined in the initial root-knot nematode tests above.

In the next assay the test system is stunt nematode. The assay is described as follows: Stunt Nematode Test. The class given is in vivo. The procedure:
as §1
The procedure was substantially the same as in the […] seedling, with subsequent inoculation of the soil with combined larvae and adult stunt nematodes. The samples were evaulated approximately four weeks after infestation. […] "Percent control" means the difference between average population counts between untreated and treated samples, divided by average population count of untreated sample, multiplied by 100.

The mark [5] stands for this setting: Table 2, Application Rate 0.625 ppm.
[6] abbreviates: Table 2, Application Rate 2.5 ppm.

With `CC(C)(C)CC(C)(C)Sc1nnc(SCCC(F)=C(F)F)s1` [Compound 12, 2-(1,1,3,3-tetramethylbutylthio)-5-(3,4,4-trifluoro-3-butenylthio)-1,3,4-thiadiazole], the pest or weed control at 0.313 ppm in assay [1] was found to be 8%. In addition, the pest or weed control at 0.625 ppm in assay [1] (setting [5]) was found to be 69%. Moreover, the pest or weed control at 1.25 ppm in assay [1] amounted to 79%. In addition, in assay [1] (setting [6]), the pest or weed control at 2.5 ppm came to 100%. The pest or weed control at 2000 ppm in the assay with root-knot nematode [2] worked out at 73%; in the assay with root-knot nematode [2] (foliar), 99%.
Take `FC(F)=C(F)CCSc1nnc(SCCC(F)=C(F)F)s1` [Compound 13, 2,5-di(3,4,4-trifluoro-3-butenylthio)-1,3,4-thiadiazole]: in assay [1], the pest or weed control at 0.078 ppm is 0%. The pest or weed control at 0.156 ppm in assay [1] worked out at 13%. Also, in assay [1], the pest or weed control at 0.313 ppm stood at 71%. Moreover, the pest or weed control at 0.625 ppm in assay [1] (setting [5]) was determined as 96%; in assay [1] it was 95%. Moreover, the pest or weed control at 1.25 ppm in assay [1] is 99%. Also, the pest or weed control at 2.5 ppm in assay [1] (setting [6]) is 99%. Besides, the pest or weed control at 5 ppm is 98% with root-knot nematode [3] (168 h, Table 3, inoculation 1 week after treatment); 98% in the assay on root-knot nematode [3] (336 h, Table 3, inoculation 2 weeks after treatment); 75% in the assay with root-knot nematode [3] (672 h, Table 3, inoculation 4 weeks after treatment). Besides, the pest or weed control at 10 ppm is 99% in the assay with root-knot nematode [3] (168 h, Table 3, 10 ppm, inoculation 1 week after treatment); 99% in the assay on root-knot nematode [3] (336 h, Table 3, 10 ppm, inoculation 2 weeks after treatment); 95% with root-knot nematode [3] (672 h). For the same compound, the pest or weed control at 2000 ppm in the assay with root-knot nematode [2] (foliar) was 79%.
As to `FC(F)=C(F)CCSc1nnc(SCC2CC2)s1` [Compound 15, 2-cyclopropylmethylthio-5-(3,4,4-trifluoro-3-butenylthio)-1,3,4-thiadiazole], in assay [1], the pest or weed control at 0.313 ppm was found to be 6% and the pest or weed control at 1.25 ppm worked out at 97%. The pest or weed control at 0.625 ppm in assay [1] (setting [5]) was 31%. Further, in assay [1] (setting [6]), the pest or weed control at 2.5 ppm was 100%. For the same compound, the pest or weed control at 2000 ppm in the assay on root-knot nematode [2] (foliar) was 83%.
Turning to `FC(F)=C(F)CCSc1nnc(-c2ccccc2)o1` [Compound 16, 2-phenyl-5-(3,4,4-trifluoro-3-butenylthio)-1,3,4-oxadiazole], in assay [1], the pest or weed control at 0.313 ppm amounted to 0%, the pest or weed control at 1.25 ppm is 44% and the pest or weed control at 2.5 ppm was found to be 95%. Besides, the pest or weed control at 0.625 ppm in assay [1] (setting [5]) is 25%. Moreover, the pest or weed control at 2000 ppm in the assay on root-knot nematode [2] (foliar) was 67%.
`FC(F)=C(F)CCSc1nnc(-c2ccc(Cl)cc2)o1` [Compound 17, 2-(4-chlorophenyl)-5-(3,4,4-trifluoro-3-butenylthio)-1,3,4-oxadiazole]: the pest or weed control at 2.5 ppm in assay [1] (setting [6]) was determined as 100%. For the same compound, in assay [1] (Table 2, Application Rate 5.0 ppm), the pest or weed control at 5 ppm amounted to 100%. In assay [1] (Table 2, Application Rate 10.0 ppm), the pest or weed control at 10 ppm is 100%. In addition, the pest or weed control at 2000 ppm in the assay on root-knot nematode [2] (foliar) came out at 42%.
On to `FC(F)=C(F)CCSc1nnc(Cc2ccc(Cl)cc2)o1` [Compound 43, 2-(4-chlorophenylmethyl)-5-(3,4,4-trifluoro-3-butenylthio)-1,3,4-oxadiazole], for which, in assay [1], the pest or weed control at 0.078 ppm was found to be 13%. The pest or weed control at 0.156 ppm in assay [1] was 38%. Moreover, the pest or weed control at 0.312 ppm in assay [1] (Table 2, Application Rate 0.312 ppm) is 78%. The pest or weed control at 1.25 ppm in assay [1] amounted to 56%. The pest or weed control at 2.5 ppm in assay [1] (setting [6]) is 97%; in the assay on lesion nematode, 93%. Moreover, the pest or weed control at 0.5 ppm in assay [1] (Table 2, Application Rate .5 ppm) is 99%. Also, in the assay on Caenorhabditis elegans (Table 9 screen, 5 ppm, read-out: Percent Inhibition of Reproduction), the inhibition at 5 ppm turned out to be 100%. The mortality at 5 ppm turned out to be 25% in the assay with Caenorhabditis elegans (Table 9 screen, 5 ppm, read-out: Percent Mortality) and 83% in the assay on Caenorhabditis elegans (Table 10 evaluation, 5 ppm, read-out: Percent Mortality). Besides, the inhibition at 1.25 ppm in the assay with Caenorhabditis elegans (Table 10 evaluation, 1.25 ppm, read-out: Percent Inhibition of Reproduction) amounted to 42%. In addition, in the assay with Caenorhabditis elegans (Table 10 evaluation, 1.25 ppm, read-out: Percent Mortality), the mortality at 1.25 ppm is 0%. The inhibition at 2.5 ppm in the assay with Caenorhabditis elegans (Table 10 evaluation, 2.5 ppm, read-out: Percent Inhibition of Reproduction) was determined as 100%. In the assay with Caenorhabditis elegans (Table 10 evaluation, 2.5 ppm, read-out: Percent Mortality), the mortality at 2.5 ppm was 67%. Further, the pest or weed control at 5 ppm with root-knot nematode [3] (168 h, Table 3a, 5% dust, inoculation 1 week post-treatment) was determined as 100%; with root-knot nematode [3] (336 h, Table 3a, 5% dust, inoculation 2 weeks post-treatment), 100%; in the assay with root-knot nematode [3] (672 h, Table 3a, 5% dust, inoculation 4 weeks post-treatment), 100%; with root-knot nematode [4] (BOTTOM container), 81%; in the assay with root-knot nematode [4] (MIDDLE container) it was 97%; in the assay on root-knot nematode [4] (TOP container) it was 99%. Moreover, the pest or weed control at 5 ppm in the assay with stunt nematode (672 h, Table 4a; rate 5 ppm; read-out: Percent Control) was determined as 81%; in the assay on stunt nematode (672 h; Table 4a; rate 5 ppm; read-out: Percent Control), 62%.

The term inhibition denotes the percentage by which the read-out fell short of the control. By mortality is commonly meant the percentage killed.
